Source: patent publication US20090048301A1 (IMCLONE SYSTEMS INCORPORATED, priority 2003, published 2009)

Key:
bovine tubulin = assay: In vitro tubulin polymerization assay (turbidity at 340 nm); assay type: biochemical; conditions: 10 μM compound, 30 minute data point, vs 1% DMSO control
Method in brief: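 Bovine tubulin (97%, <3% MAPs) at 3 mg/ml final in G-PEM pH 7 with 1 mM GTP and 5% glycerol, added cold to compound wells at 37° C (1% DMSO final). A340 read each minute for 30 min; percent inhibition from 30-min point versus DMSO control.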

[1] = tested on: A431, human epidermoid carcinoma cells; assay: Cell cycle analysis (FACS), mitotic arrest in G2/M; assay type: cell-based; conditions: Homo sapiens, A-431, 24 h, read-out: FACS Assay: concentration required to achieve inhibition in FACS assay
Protocol: The cell cycle analysis was performed as follows. Cancer cells (A431, human epidennoid carcinoma cells) were maintained in culture in D-MEM media with 10% FBS and 1 mg/ml glutamate. Prior to experiment, cells were plated onto 6-well plates for a final density of 500,000 cells/well at the time of treatment. Cells were treated with the compounds of the invention at a concentration of about 0.01 to 1 μM final concentrations (final 0.1% DMSO) for 24 hours, then trypsinized, collected, rinsed in PBS (phosphate buffered saline), and fixed in 70% cold ethanol overnight at 4° C. The cells were then rinsed with PBS, resuspended in PBS with 0.2% Tween, RNAse was added (final 1 μg/ml), cells were incubated at 37° C. for 15 min, followed by addition of Propidium Iodide (final 50 μg/ml), and a 30 minute incubation at room temperature. DNA ploidy was analyzed using flow cytometers (Epics Excel, Beckman-Coulter, or Guava PCA-96, Guava Technologies) and mitotic arrest characterized by massive accumulation of cells in the G2/M phase of cell cycle.
Cancer cells (A431, human epidermoid cells) were maintained in culture in D-MEM media with 10% FBS and 1 mg/ml glutamate. Prior to experiment, cells are plated onto 6-well plates for a final density of 500,000 cells/well at the time of treatment. Cells were treated with compounds at 0.01-1 μM final concentrations (final […] DMS 0) for 24 hours, then trypsinized, collected, rinsed in PBS (phosphate buffered saline), and fixed in 70% cold ethanol overnight at 4° C. Cells were then rinsed with PBS, resuspended in PBS with 0.2% Tween, RNAse was added (final 1 μg/ml), cells were incubated at 37° C. for 15 min, followed by addition of Propidium Iodide (final 50 μg/ml), and a 30 minute incubation at room temperature. DNA ploidy was analyzed using cell sorters (Epics Excel, Beckman-Coulter, or Guava PCA-96, Guava Technologies) and mitotic arrest characterized by massive accumulation of cells in the G2/M phase of cell cycle.

COc1cc(Nc2ncccc2-c2nnc(Nc3ccc4c(c3)OCCO4)[nH]2)cc(OC)c1 [Compound 50, {3-[5-(2,3-Dihydro-benzo[1,4]dioxin-6-ylamino)-4H-[1,2,4]triazol-3-yl]-pyridin-2-yl}-(3,5-dimethoxy-phenyl)-amine]
Tubulin Assay: percent inhibition at 10 μM based on 30 minute data (bovine tubulin): 90% | minimal effective concentration [1]: 0.1 µM

COc1ccc(CNc2ncccc2-c2nnc(Nc3ccc4c(c3)OCCO4)[nH]2)cc1 [Compound 51, {3-[5-(2,3-Dihydro-benzo[1,4]dioxin-6-ylamino)-4H-[1,2,4]triazol-3-yl]-pyridin-2-yl}-(4-methoxy-benzyl)-amine]
Tubulin Assay: percent inhibition at 10 μM based on 30 minute data (bovine tubulin): 68% | minimal effective concentration [1]: 1 µM

COc1cc(Nc2ncccc2-c2nnc(NCC3CCCO3)[nH]2)cc(OC)c1 (stereo not drawn) [Compound 56, (3,5-Dimethoxy-phenyl)-(3-{5-[(tetrahydro-furan-2-ylmethyl)-amino]-4H-[1,2,4]triazol-3-yl}-pyridin-2-yl)-amine]
Tubulin Assay: percent inhibition at 10 μM based on 30 minute data (bovine tubulin): 97% | minimal effective concentration [1]: 1 µM

COc1cccc(CNc2nnc(-c3cccnc3Nc3cc(OC)cc(OC)c3)[nH]2)c1 [Compound 58, (3,5-Dimethoxy-phenyl)-{3-[5-(3-methoxy-benzylamino)-4H-[1,2,4]triazol-3-yl]-pyridin-2-yl}-amine]
Tubulin Assay: percent inhibition at 10 μM based on 30 minute data (bovine tubulin): 100% | minimal effective concentration [1]: 0.1 µM

COc1ccc(CNc2nnc(-c3cccnc3Nc3cc(OC)cc(OC)c3)[nH]2)cc1 [Compound 59, (3,5-Dimethoxy-phenyl)-{3-[5-(4-methoxy-benzylamino)-4H-[1,2,4]triazol-3-yl]-pyridin-2-yl}-amine]
Tubulin Assay: percent inhibition at 10 μM based on 30 minute data (bovine tubulin): 88% | minimal effective concentration [1]: 1 µM

COc1cc(Nc2ncccc2-c2nnc(Nc3cccc([N+](=O)[O-])c3)[nH]2)cc(OC)c1 [Compound 60a, (3,5-dimethoxy-phenyl)-{3-[5-(3-nitro-phenylamino)-4H-[1,2,4]triazol-3-yl]-pyridin-2-yl}-amine]
Tubulin Assay: percent inhibition at 10 μM based on 30 minute data (bovine tubulin): 95% | minimal effective concentration [1]: 0.1 µM

c1cnc(OCc2ccc3c(c2)OCO3)c(-c2nnc(Nc3ccc4c(c3)OCCO4)[nH]2)c1 [Compound 71, {5-[2-(Benzo[1,3]dioxol-5-ylmethoxy)-pyridin-3-yl]-4H-[1,2,4]triazol-3-yl}-(2,3-dihydro-benzo[1,4]dioxin-6-yl)-amine]
Tubulin Assay: percent inhibition at 10 μM based on 30 minute data (bovine tubulin): 83% | minimal effective concentration [1]: 0.1 µM

c1cnc(OCc2ccc3c(c2)OCO3)c(-c2nnc(Nc3ccc4c(c3)OCO4)[nH]2)c1 [Compound 72, Benzo[1,3]dioxol-5-yl-{5-[2-(benzo[1,3]dioxol-5-ylmethoxy)-pyridin-3-yl]-4H-[1,2,4]triazol-3-yl}-amine]
Tubulin Assay: percent inhibition at 10 μM based on 30 minute data (bovine tubulin): 100% | minimal effective concentration [1]: 0.1 µM

COc1cccc(Nc2nnc(-c3cccnc3OCc3ccc4c(c3)OCO4)[nH]2)c1 [Compound 73, {5-[2-(Benzo[1,3]dioxol-5-ylmethoxy)-pyridin-3-yl]-4H-[1,2,4]triazol-3-yl}-(3-methoxy-phenyl)-amine]
Tubulin Assay: percent inhibition at 10 μM based on 30 minute data (bovine tubulin): 70% | minimal effective concentration [1]: 1 µM

COc1cc(Nc2ncccc2-c2nnc(-c3ccc(S(C)(=O)=O)cc3)[nH]2)cc(OC)c1 [Compound 74, (3,5-Dimethoxy-phenyl)-{3-[5-(4-methanesulfonyl-phenyl)-4H-[1,2,4]triazol-3-yl]-pyridin-2-yl}-amine]
Tubulin Assay: percent inhibition at 10 μM based on 30 minute data (bovine tubulin): 87% | minimal effective concentration [1]: 0.1 µM

CS(=O)(=O)c1ccc(-c2nnc(-c3cccnc3Nc3cccc(S(N)(=O)=O)c3)[nH]2)cc1 [Compound 92, 3-{3-[5-(4-Methanesulfonyl-phenyl)-4H-[1,2,4]triazol-3-yl]-pyridin-2-ylamino}-benzenesulfonamide]
Tubulin Assay: percent inhibition at 10 μM based on 30 minute data (bovine tubulin): 74% | minimal effective concentration [1]: 10 µM

CS(=O)(=O)c1ccc(-c2nnc(-c3cccnc3NCc3ccc4c(c3)CCO4)[nH]2)cc1 [Compound 97, (2,3-Dihydro-benzofuran-5-ylmethyl)-{3-[5-(4-methanesulfonyl-phenyl)-4H-[1,2,4]triazol-3-yl]-pyridin-2-yl}-amine]
Tubulin Assay: percent inhibition at 10 μM based on 30 minute data (bovine tubulin): 77% | minimal effective concentration [1]: 1 µM

CS(=O)(=O)c1ccc(-c2nnc(-c3cccnc3NCc3ccco3)[nH]2)cc1 [Compound 98, Furan-2-ylmethyl-{3-[5-(4-methanesulfonyl-phenyl)-4H-[1,2,4]triazol-3-yl]-pyridin-2-yl}-amine]
Tubulin Assay: percent inhibition at 10 μM based on 30 minute data (bovine tubulin): 83% | minimal effective concentration [1]: 1 µM

COc1cccc(-c2nnc(-c3cccnc3NCc3ccc(F)c(F)c3)[nH]2)c1 [Compound 100, (3,4-Difluoro-benzyl)-{3-[5-(3-methoxy-phenyl)-4H-[1,2,4]triazol-3-yl]-pyridin-2-yl}-amine]
Tubulin Assay: percent inhibition at 10 μM based on 30 minute data (bovine tubulin): 70% | minimal effective concentration [1]: 10 µM

Fc1ccc(CNc2ncccc2-c2nnc(-c3ccc4c(c3)OCO4)[nH]2)cc1F [Compound 101, [3-(5-Benzo[1,3]dioxol-5-yl-4H-[1,2,4]triazol-3-yl)-pyridin-2-yl]-(3,4-difluoro-benzyl)-amine]
Tubulin Assay: percent inhibition at 10 μM based on 30 minute data (bovine tubulin): 66% | minimal effective concentration [1]: 1 µM

CS(=O)(=O)c1ccc(-c2nnc(-c3cccnc3NCc3ccc(F)c(F)c3)[nH]2)cc1 [Compound 102, (3,4-Difluoro-benzyl)-{3-[5-(4-methanesulfonyl-phenyl)-4H-[1,2,4]triazol-3-yl]-pyridin-2-yl}-amine]
Tubulin Assay: percent inhibition at 10 μM based on 30 minute data (bovine tubulin): 88% | minimal effective concentration [1]: 0.1 µM

CS(=O)(=O)c1ccc(-c2nnc(-c3cccnc3NCC3COCCO3)[nH]2)cc1 (stereo not drawn) [Compound 103, [1,4]Dioxan-2-ylmethyl-{3-[5-(4-methanesulfonyl-phenyl)-4H-[1,2,4]triazol-3-yl]-pyridin-2-yl}-amine]
Tubulin Assay: percent inhibition at 10 μM based on 30 minute data (bovine tubulin): 80% | minimal effective concentration [1]: 1 µM

CS(=O)(=O)c1ccc(-c2nnc(-c3cccnc3NCc3ccc4c(c3)OCCO4)[nH]2)cc1 [Compound 105, (2,3-Dihydro-benzo[1,4]dioxin-6-ylmethyl)-{3-[5-(4-methanesulfonyl-phenyl)-4H-[1,2,4]triazol-3-yl]-pyridin-2-yl}-amine]
Tubulin Assay: percent inhibition at 10 μM based on 30 minute data (bovine tubulin): 91% | minimal effective concentration [1]: 1 µM

CS(=O)(=O)c1ccc(-c2nnc(-c3cccnc3NCC3CCCO3)[nH]2)cc1 (stereo not drawn) [Compound 106, {3-[5-(4-Methanesulfonyl-phenyl)-4H-[1,2,4]triazol-3-yl]-pyridin-2-yl}-(tetrahydro-furan-2-ylmethyl)-amine]
Tubulin Assay: percent inhibition at 10 μM based on 30 minute data (bovine tubulin): 79% | minimal effective concentration [1]: 0.1 µM

CS(=O)(=O)c1ccc(-c2nnc(-c3cccnc3NCc3ccc(F)cc3)[nH]2)cc1 [Compound 108, (4-Fluoro-benzyl)-{3-[5-(4-methanesulfonyl-phenyl)-4H-[1,2,4]triazol-3-yl]-pyridin-2-yl}-amine]
Tubulin Assay: percent inhibition at 10 μM based on 30 minute data (bovine tubulin): 91% | minimal effective concentration [1]: 0.1 µM

c1ccc(-c2nnc(Nc3ccc4c(c3)OCCO4)[nH]2)c(NCc2ccc3[nH]ncc3c2)c1 [Compound 117, (2,3-Dihydro-benzo[1,4]dioxin-6-yl)-(5-{2-[(1H-indazol-5-ylmethyl)-amino]-phenyl}-4H-[1,2,4]triazol-3-yl)-amine]
Tubulin Assay: percent inhibition at 10 μM based on 30 minute data (bovine tubulin): 84% | minimal effective concentration [1]: 1 µM
